No end group written: not given here.
Test system: antibodies specific to TPA (prepared by using natural cancer antigen, CAPA or TPA)
Assay: hemagglutination inhibition test
Format: binding
Settings: for immunological activity after coupling to inert albumin: coupled to inert bovine albumin, molar ratio about 1:1, by water soluble carbodiimide (EDC)
Source text: The polypeptide prepared according to the foregoing was investigated with regard to its ability to inhibit the hemagglutination reaction between tanned red sheep blood cells labelled with natural cancer antigen and antibodies prepared by using natural cancer antigen (CAPA or TPA). With regard to details concerning this technique reference is had to the above-identified Swedish patent application 73-08917-9 and U.S. Pat. No. 3,960,827. […] Said Unit for specific activity is defined as 1/6 of the quantity active polypeptide required to label 10^9 sheep blood cells so as to be fully agglutinated by a minimum number or amount of antibodies (maximum dilution of antibodies).
In Example 1 as described above the antigenic activity of the synthesized polypeptide was determined in the following manner.
For quantitative determination of the amount of polypeptide 7 mgs of the peptide are dissolved in 1.4 mls of buffer grade serum, i.e. a physiological saline solution containing 2% of inert human serum and buffered to a pH of about 7.5 with a phosphate buffer. Under serial dilution a series of samples of said solution having a decreasing polypeptide concentration is prepared and to each of said samples there is added a pre-determined amount of anti-serum containing antibodies specific to TPA. To each of the resulting samples there is then added, after incubation, a predetermined amount of the polypeptide carried on a particulate carrier, hemagglutination taking place to an extent corresponding to the amount of available antibodies. In parallel there is prepared a corresponding series of control samples containing known decreasing amounts of TPA. The diameters of the hemagglutination depositions of the control samples are then measured in their respective cavities on a serial dilution test plate, and the values of the diameters obtained are plotted against the TPA concentrations, an S-shaped curve being obtained, the intermediate part of which including an inflexion point as a steep inclination. The corresponding curve of the diameter of the depositions from the hemagglutination as a function of the TPA-concentrations is shown in the diagram of the appended drawing, as curve B.
In the same diagram the corresponding curve for the synthesized polypeptide is shown as A, and with knowledge of the specific activity of the TPA the specific activity of the synthesized polypeptide is found to be 0.024 Units per milligram of peptide.

ALLNDELAQYLDLVRALEAANGQLEV [Example 1]
activity lowered (basic environment only, pH 13, same period of time, no cyclohexanedione): about 20%
loss of activity (centrally positioned arginine A0 blocked with cyclohexanedione at pH 13): 99.5%
specific activity (inhibition of hemagglutination between tanned red sheep blood cells labelled with natural cancer antigen and anti-TPA antibodies, compared with the TPA control curve): 0.024 U/mg
activity disappears (treated with iodine at pH 9.5, 100 times excess): 40-50%
activity lost (treated with iodine at pH 9.5, 1000 times excess): about 75%
activity lost (treated with iodine at pH 9.5, excess of about 10000 times in relation to tyrosine content): about 85%
activity of the polypeptide (treated with iodine at pH 9.5, excess of only about 10 times): not effected

ALLNDILAQYLDLVRALEAANGRLEV [Example 25]
immunological activity compared with the polypeptide of Example 1: about equally immunologically active

AQYLDLVRALEAANGELEV [Example 3, Ala Gln Tyr Leu Asp Leu Val Arg Ala Leu Glu Ala Ala Asn Gly Glu Leu Glu Val]
immunological activity compared with the polypeptide of Example 1: about equally immunologically active
immunological activity after coupling to inert albumin: maintained

DDRLAKYLDKVRALEAADG [Example 6, Asp Asp Arg Leu Ala Lys Tyr Leu Asp Lys Val Arg Ala Leu Glu Ala Ala Asp Gly]
immunological activity compared with the polypeptide of Example 1: about equally immunologically active

LNDELAQYLDLVRALEAANGRLEV [Example 4]
immunological activity compared with the polypeptide of Example 1: about equally immunologically active
immunological activity after coupling to inert albumin: maintained

NDILAQYLDLVRALEAANG [Example 5, Asn Asp Ile Leu Ala Gln Tyr Leu Asp Leu Val Arg Ala Leu Glu Ala Ala Asn Gly]
immunological activity compared with the polypeptide of Example 1: about equally immunologically active

TDLDDRLAKYLDKVRALEAADGELEV [Example 2]
immunological activity compared with the polypeptide of Example 1: about equally immunologically active

Source: patent US4107298A, “Antigenically active polypeptide and a process for its preparation” (AB Bonnierforetagen, priority 1976, dated 1978)
